From patent publication EP1132396A1, “PHYSIOLOGICALLY ACTIVE PEPTIDES” (KYOWA HAKKO KOGYO CO., LTD., priority 1998, dated 2000) come the findings set out here.

In general, solubility refers to how much of the substance goes into solution per volume. Higher therefore signals much dissolved substance.

≈ marks a conversion by molar mass, not a printed value. Residues, ends and D or L forms follow the SMILES beside them.

Data set [1] in a line: Water solubility of the peptides. It is filed as physicochemical. An excerpt: The physicochemical properties of the peptides of the present invention obtained by the above-described process are shown below.
Data set [2] concerns human peripheral blood leukocytes. Briefly: Measurement of phagocytosis activity (fluorescence-labeled latex beads, flow cytometry). It is filed as cell-based. Particulars: rate based on the control (only PBS). The procedure: To human peripheral blood was added physiological saline containing phosphate buffer (PBS), and the resulting mixture was centrifuged at 1000 rpm for 5 minutes to wash blood cells. Then, the blood cells were suspended in PBS to prepare a suspension having a density of 4 x 10^6 cells/ml. To 100 µl of the suspension was added 10 µl of a solution of a peptide in PBS, followed by incubation at 37°C for 10 minutes. Then, 10 µl of a suspension of 4 x 10^8/ml fluorescence-labeled latex beads opsonized with human peripheral blood was added thereto, and the resulting mixture was incubated for 5 minutes. To the mixture was added PBS containing ethylenediaminetetraacetic acid (EDTA) to stop the reaction. The resulting mixture was centrifuged to separate blood cells, and an ammonium chloride hemolyzing agent was added thereto for hemolysis to obtain leukocytes. After the obtained leukocytes were suspended in PBS containing EDTA, the resulting suspension was subjected to flow cytometry, and the number of cells which phagocytosed latex beads was calculated.
The results are expressed in terms of the rate based on the control (containing only PBS).

Another data set deals with C3H/HeSlc mice. Briefly: Effect on hair growth of mouse (feed administration). Particulars: 20th day, control group subtracted. It is filed as in vivo. How it is done: A test of the effect on hair growth of mice was carried out referring to the method of Ogawa, et al. [The Journal of Dermatology, 10, 45-54 (1983)].
Nine-weeks-old male C3H/HeSlc mice whose hair cycle was in the telogen (Japan SLC) were divided into groups each consisting of 4 or 5 mice. Hair on the back of each mouse was carefully shaven using electric hair clippers and an electric shaver. Then, the mice were fed with the feeds prepared in Reference Examples 1-4.
The control group was fed only with a powder feed containing no peptide of the present invention (CE-2, Clea Japan, Inc.)
On the 20th day after the start of the test, the skin on the back of each mouse was cut off and photographed. Using an image processor (Avionics Co., Spicca II), the percentage of the hair-grown area to the total area of the skin on the back was calculated. The rate of the increased hair-grown area (%) was obtained by subtracting the hair-growing rate of the control group from the hair-growing rate of the group fed with a powder feed containing a peptide of the present invention.

Data set [3] relates to mouse hair follicle cells. Briefly: Cell growth-promoting effect on cultured mouse hair follicle cells (Neutral Red). The format is cell-based, C3H mouse. Particulars: 5 days culture. The procedure: Mouse hair follicle cells were separated and cultured according to a modification of the method of Tanigaki, et al. [Archives of Dermatological Research, 284, 290-296 (1992)].
The skin on the back of a 4-days-old C3H mouse (Nippon Charles River Co., Ltd.) was cut off and treated with Eagle's MEM (Eagle's Minimum Essential Medium, Nissui Pharmaceutical Co., Ltd.) containing 500 units/ml Dispase (Godo Shusei Co., Ltd.) and 5% fetal calf serum (FCS) at 4°C for 16 hours. Then, the epidermis was stripped from the skin section, and the obtained dermis layer was treated with DMEM (Dulbecco's Modified Eagle Medium) containing 0.25% Collagenase N-2 (Nitta Gelatin Co., Ltd.) and 10% FCS at 37°C for one hour to obtain a dermis suspension. The dermis suspension was filtered through a 212-µm nylon mesh (Nippon Rikagaku Kikai Co., Ltd.) and the filtrate was centrifuged at 1000 rpm for 5 minutes to obtain pellets containing hair follicle tissue. To the pellets was added calcium/magnesium-free PBS (Dulbecco's Phosphate-Buffered Saline) and the pellets were suspended therein using a pipette. The resulting suspension was allowed to stand for 15 minutes to precipitate the hair tissue. The same procedure as above (addition of calcium/magnesium-free PBS, preparation of a suspension using a pipette, and precipitation by standing for 15 minutes) was repeated three times using the obtained hair tissue. Then, the hair tissue was treated with an aqueous solution containing 0.1% ethylenediaminetetraacetic acid (EDTA) and 0.25% trypsin (Gibco) at 37°C for 5 minutes. To the resulting mixture was added DMEM containing 10% FCS to prepare a hair tissue cell suspension having a density of 3 x 10^5 cells/ml.
This hair tissue cell suspension was put into wells of a 24-well collagen-coated plate (Iwaki Glass Co., Ltd.) in an amount of 1 ml/well, followed by culturing in 5% CO2 at 37°C for 24 hours. After the completion of culturing, the medium was replaced by a medium prepared by adding to MCDB153 medium (Kyokuto Pharmaceutical Ind. Co., Ltd.) 5 mg/l bovine insulin (Sigma Chemical Co.), 5 µg/l mouse epidermal growth factor (EGF) (Takara Shuzo Co., Ltd.), 40 mg/l bovine pituitary extract (Kyokuto Pharmaceutical Ind. Co., Ltd.), 10 mg/l human transferrin (Sigma Chemical Co.), 0.4 mg/l hydrocortisone (Sigma Chemical Co.), 0.63 µg/l progesterone (Collaborative Research Co.), 14 mg/l O-phosphoethanolamine (Sigma Chemical Co.), 6.1 mg/l ethanolamine (Sigma Chemical Co.), 50 U/ml penicillin (Wako Pure Chemical Industries, Ltd.), 50 µg/ml streptomycin (Wako Pure Chemical Industries, Ltd.) and a dimethyl sulfoxide (DMSO) solution containing a peptide of the present invention (added in an amount of 1/100 by volume based on the medium), followed by further culturing in 5% CO2 at 37°C for 5 days. During the culturing, the medium was replaced with a fresh one every other day.
As a control, the cells were cultured in the same medium as above except that DMSO containing no peptide was added in an amount of 1/100 by volume based on the culture in place of DMSO containing the peptide.
The degree of cell growth was measured referring to the method using Neutral Red [Journal of Tissue Culture Method, 9, 1, 7-9 (1984)].
After the completion of culturing, the medium was sucked and the resulting cells were cultured in MCDB153 medium containing 50 mg/l Neutral Red (Sigma Chemical Co.) in 5% CO2 at 37°C for 3 hours. […] The degree of cell growth was determined by measuring the absorbance of the extract at 540 nm. […]

Compound `CC[C@H](C)[C@H](NC(=O)[C@@H](N)CCSC)C(=O)N[C@@H](Cc1ccc(O)cc1)C(=O)N[C@@H](CC(C)C)C(=O)O` [MIYL] (H-MIYL-OH) yielded a solubility in data set [1] of 300 µg/mL (≈ 557 µM). The Phagocytosis activity in data set [2] (Concentration 1 µM) turned out to be 1.32 ± 0.15; in data set [2] (Concentration 3 µM), 2.21 ± 0.25; in data set [2] (Concentration 10 µM), 3.12 ± 0.32.

For the compound `CC[C@H](C)[C@H](NC(=O)[C@@H](N)CCSC)C(=O)N[C@@H](Cc1c[nH]c2ccccc12)C(=O)N[C@@H](CC(C)C)C(=O)O` [MIWL] (H-MIWL-OH), the “Rate of increased hair-grown area (%)” value with C3H/HeSlc mice (0.05% addition to feed) is on record as 34.4%. The compound also displayed a solubility in data set [1] of 200 µg/mL (≈ 356 µM). The Phagocytosis activity amounted to 1.93 ± 0.18 in data set [2] (Concentration 0.1 µM), 2.74 ± 0.25 in data set [2] (Concentration 0.3 µM), 3.11 ± 0.07 in data set [2] (Concentration 1 µM) and 3.04 ± 0.50 in data set [2] (Concentration 3 µM).

In data set [1], `CC[C@H](C)[C@H](NC(=O)[C@@H](N)CCSC)C(=O)N[C@@H](Cc1ccccc1)C(=O)N[C@@H](CC(C)C)C(=O)O` [MIFL] (H-MIFL-OH) displayed a solubility of 200 µg/mL (≈ 383 µM). For the same compound, the Phagocytosis activity is recorded as 1.10 ± 0.09 in data set [2] (Concentration 0.1 µM), 1.68 ± 0.08 in data set [2] (Concentration 0.3 µM), 2.45 ± 0.17 in data set [2] (Concentration 1 µM) and 3.06 ± 0.25 in data set [2] (Concentration 3 µM).

Turning to `CC[C@H](C)[C@H](NC(=O)[C@@H](N)CCSC)C(=O)N[C@@H](Cc1ccccc1)C(=O)O` [MIF] (H-Met-Ile-Phe-OH), the “Rate of increased hair-grown area (%)” value with C3H/HeSlc mice (0.005% addition to feed) is 26.8%. In data set [1], this compound had a solubility of 30000 µg/mL (≈ 73300 µM).

For `CC[C@H](C)[C@H](NC(=O)[C@@H](N)CCSC)C(=O)N[C@@H](CC(C)C)C(=O)N[C@@H](CC(C)C)C(=O)O` [MILL] (H-MILL-OH), in data set [1], the concentration in solution (solubility) was 200 µg/mL (≈ 409 µM). The figures for the Phagocytosis activity in data set [2] (Concentration 3 µM), in data set [2] (Concentration 10 µM) and in data set [2] (Concentration 30 µM) were 1.28 ± 0.09, 2.05 ± 0.08 and 2.97 ± 0.17, respectively.

In turn, `CC[C@H](C)[C@H](NC(=O)[C@@H](NC(=O)[C@@H](N)CCSC)[C@@H](C)CC)C(=O)N[C@@H](CC(C)C)C(=O)O` [MIIL] (H-MIIL-OH) showed a solubility in data set [1] of 200 µg/mL (≈ 409 µM). The Phagocytosis activity in data set [2] (Concentration 1 µM) turned out to be 1.18 ± 0.07; in data set [2] (Concentration 3 µM), 1.62 ± 0.08; in data set [2] (Concentration 10 µM), 2.52 ± 0.18; in data set [2] (Concentration 30 µM), 2.95 ± 0.20.

For the compound `CC[C@H](C)[C@H](NC(=O)[C@@H](N)CCSC)C(=O)N[C@@H](Cc1c[nH]c2ccccc12)C(=O)O` [MIW] (H-Met-Ile-Trp-OH), the “Rate of increased hair-grown area (%)” value with C3H/HeSlc mice (0.005% addition to feed) is listed as 20.7%; in the data set on C3H/HeSlc mice (0.05% addition to feed), 23.7%. The “Relative cell growth rate (%) (based on the control)” value in data set [3] (Concentration 1 µM) is listed as 97%; in data set [3] (Concentration 3 µM), 143%; in data set [3] (Concentration 10 µM), 130%; in data set [3] (Concentration 30 µM), 123%; in data set [3] (Concentration 100 µM) it was 119%. Besides, the solubility in data set [1] was found to be 1000 µg/mL (≈ 2230 µM).
